Reference: patent US10053428B2, “5-aminotetrahydroquinoline-2-carboxylic acids and their use” (BAYER PHARMA AKTIENGESELLSCHAFT, priority 2012, dated 2018)
Read-outs that look alike come from different tables or passages of the source.

What was measured:
[1] = test system: recombinant guanylate cyclase reporter cell line; assay: sGC-activating activity in the CHO reporter cell in vitro; type: cell-based; settings: read-out: MEC (minimum effective concentration)
Description: B-2. Action at a Recombinant Guanylate Cyclase Reporter Cell Line
The cellular action of the compounds according to the invention is determined at a recombinant guanylate cyclase reporter cell line, as described in F. Wunder et al., Anal. Biochem. 32, 104-112 (2005).

[2] = test system: saphenous artery rings; assay: Vasorelaxant effect in vitro (phenylephrine-contracted saphenous artery rings); parameters: species or system Rabbits; settings: rabbit saphenous artery rings, read-out: IC50 (concentration reducing phenylephrine-induced contraction by 50%)
Description: B-3. Vasorelaxant Effect In Vitro
Rabbits are anaesthetized and sacrificed by intravenous injection of thiopental sodium (about 50 mg/kg) and exsanguinated. The saphenous artery is removed and divided into rings 3 mm wide. The rings are mounted singly on in each case a pair of triangular hooks open at the end and made of 0.3 mm-thick special wire (Remanium®). Each ring is placed under an initial tension in 5 ml organ baths with Krebs-Henseleit solution which is at 37° C., is gassed with carbogen and has the following composition: NaCl 119 mM; KCl 4.8 mM; CaCl2×2 H2O 1 mM; MgSO4×7H2O 1.4 mM; KH2PO4 1.2 mM; NaHCO3 25 mM; glucose 10 mM; bovine serum albumin 0.001%. The force of contraction is detected with Statham UC2 cells, amplified and digitized via A/D converters (DAS-1802 HC, Keithley Instruments, Munich) and recorded in parallel on chart recorders. Contractions are induced by addition of phenylephrine.
After several (generally 4) control cycles, the substance to be investigated is added in each further run in increasing dosage, and the level of the contraction achieved under the influence of the test substance is compared with the level of the contraction reached in the last preceding run. The concentration necessary to reduce the contraction reached in the preceding control by 50% is calculated from this (IC50). The standard application volume is 5 μl. The proportion of DMSO in the bath solution corresponds to 0.1%.

[3] = molecular target: T1, haem-containing recombinant soluble guanylate cyclase (sGC) (Rattus norvegicus, UniProt P20595); assay: Stimulation of recombinant soluble guanylate cyclase (sGC) in vitro, haem-containing enzyme; type: biochemical
T1 construct: made in house; host or cells: Sf9 insect cells (baculovirus)
T1 sequence (P20595 1-619): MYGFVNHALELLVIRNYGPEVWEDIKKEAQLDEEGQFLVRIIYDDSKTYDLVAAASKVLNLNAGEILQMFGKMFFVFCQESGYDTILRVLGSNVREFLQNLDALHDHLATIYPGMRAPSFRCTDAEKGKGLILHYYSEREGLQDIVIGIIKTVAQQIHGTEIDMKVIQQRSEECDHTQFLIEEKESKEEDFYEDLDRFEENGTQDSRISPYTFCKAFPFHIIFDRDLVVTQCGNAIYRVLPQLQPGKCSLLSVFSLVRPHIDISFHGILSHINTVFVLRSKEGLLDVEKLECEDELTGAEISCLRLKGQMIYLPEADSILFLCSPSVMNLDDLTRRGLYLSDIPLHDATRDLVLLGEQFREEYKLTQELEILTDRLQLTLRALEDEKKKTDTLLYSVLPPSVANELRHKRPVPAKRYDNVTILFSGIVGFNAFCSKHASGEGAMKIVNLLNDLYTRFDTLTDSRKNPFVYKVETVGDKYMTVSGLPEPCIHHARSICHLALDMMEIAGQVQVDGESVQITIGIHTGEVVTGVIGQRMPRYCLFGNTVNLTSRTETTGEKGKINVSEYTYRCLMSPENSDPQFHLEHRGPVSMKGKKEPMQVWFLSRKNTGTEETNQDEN
T1 sequence (P19686 1-690 partner): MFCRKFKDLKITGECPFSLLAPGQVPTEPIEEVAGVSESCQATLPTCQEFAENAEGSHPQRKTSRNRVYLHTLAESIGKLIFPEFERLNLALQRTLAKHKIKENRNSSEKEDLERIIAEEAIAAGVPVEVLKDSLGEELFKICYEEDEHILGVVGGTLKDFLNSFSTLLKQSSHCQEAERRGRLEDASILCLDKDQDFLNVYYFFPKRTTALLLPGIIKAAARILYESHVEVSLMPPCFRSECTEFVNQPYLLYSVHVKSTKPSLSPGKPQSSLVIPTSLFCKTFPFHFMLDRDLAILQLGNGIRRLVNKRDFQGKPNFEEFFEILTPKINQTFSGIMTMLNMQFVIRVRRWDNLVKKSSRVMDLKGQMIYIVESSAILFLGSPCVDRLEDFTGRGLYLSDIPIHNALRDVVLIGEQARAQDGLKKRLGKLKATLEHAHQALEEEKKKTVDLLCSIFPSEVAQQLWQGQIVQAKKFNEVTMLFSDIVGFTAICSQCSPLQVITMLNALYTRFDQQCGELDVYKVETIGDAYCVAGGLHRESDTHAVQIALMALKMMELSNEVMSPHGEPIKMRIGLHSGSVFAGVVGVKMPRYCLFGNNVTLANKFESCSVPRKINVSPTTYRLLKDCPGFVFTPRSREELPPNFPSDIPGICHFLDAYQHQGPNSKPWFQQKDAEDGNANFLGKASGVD
Description: (§1) B-1. Stimulation of Recombinant Soluble Guanylate Cyclase (sGC) In Vitro
(§2) Investigations on the stimulation of recombinant soluble guanylate cyclase (sGC) by the compounds according to the invention with and without sodium nitroprusside, and with and without the haem-dependent sGC inhibitor 1H-1,2,4-oxadiazolo[4,3a]quinoxalin-1-one (ODQ), are carried out by the method described in detail in the following reference: M. Hoenicka, E. M. Becker, H. Apeler, T. Sirichoke, H. Schroeder, R. Gerzer and J.-P. Stasch, “Purified soluble guanylyl cyclase expressed in a baculovirus/Sf9 system: Stimulation by YC-1, nitric oxide, and carbon oxide”, J. Mol. Med 77 (1999), 14-23. The haem-free guanylate cyclase is obtained by adding Tween 20 to the sample buffer (0.5% in the final concentration).
The activation of sGC by a test substance is reported as x-fold stimulation of the basal activity. The result for Example 2 is shown in Table 1A, that for Example 23 in Table 1B and that for Example 39 in Table 1C:
[DEA/NO=2-(N,N-diethylamino)diazenolate 2-oxide; ODQ=1H-1,2,4-oxadiazolo-[4,3a]quinoxalin-1-one].

[4] = molecular target: T2, haem-free recombinant soluble guanylate cyclase (sGC) (Rattus norvegicus, UniProt P20595); assay: Stimulation of recombinant soluble guanylate cyclase (sGC) in vitro, haem-free enzyme; type: biochemical
T2 construct: made in house; host or cells: Sf9 insect cells (baculovirus)
T2 sequence (P20595 1-619): T1 sequence (P20595 1-619)
T2 sequence (P19686 1-690 partner): T1 sequence (P19686 1-690 partner)
Description: as §1, §2
The activation of sGC by a test substance is reported as x-fold stimulation of the basal activity. The result for Example 2 is shown in Table 1A, that for Example 23 in Table 1B and that for Example 39 in Table 1C: […]

Row | Compound | minimal effective concentration [1] | IC50 [2] | Effect of combination with the NO donor DEA/NO on sGC stimulation [3] | Stimulation (x-fold), haem-containing sGC, basal ([3]; test compound 0.01 μM) | Stimulation (x-fold), haem-containing sGC, +0.1 μM DEA/NO ([3]; test compound 0.01 μM) | Stimulation (x-fold), haem-containing sGC, +10 μM ODQ ([3]; test compound 0.01 μM) | Stimulation (x-fold), haem-containing sGC, basal ([3]; test compound 0.1 μM) | Stimulation (x-fold), haem-containing sGC, +0.1 μM DEA/NO ([3]; test compound 0.1 μM) | Stimulation (x-fold), haem-containing sGC, +10 μM ODQ ([3]; test compound 0.1 μM) | Stimulation (x-fold), haem-containing sGC, basal ([3]; test compound 1.0 μM) | Stimulation (x-fold), haem-containing sGC, +0.1 μM DEA/NO ([3]; test compound 1.0 μM) | Stimulation (x-fold), haem-containing sGC, +10 μM ODQ ([3]; test compound 1.0 μM) | Stimulation (x-fold), haem-containing sGC, basal ([3]; test compound 10 μM) | Stimulation (x-fold), haem-containing sGC, +0.1 μM DEA/NO ([3]; test compound 10 μM) | Stimulation (x-fold), haem-containing sGC, +10 μM ODQ ([3]; test compound 10 μM) | Stimulation (x-fold), haem-containing sGC, basal ([3]; test compound 100 μM) | Stimulation (x-fold), haem-containing sGC, +0.1 μM DEA/NO ([3]; test compound 100 μM) | Stimulation (x-fold), haem-containing sGC, +10 μM ODQ ([3]; test compound 100 μM) | Stimulation (x-fold), haem-free sGC, basal ([4]; test compound 0.01 μM) | Stimulation (x-fold), haem-free sGC, basal ([4]; test compound 0.1 μM) | further results
1 | CC(C)(C)c1ccc(COc2ccccc2CCN(CCCCC(=O)O)C2CCCc3nc(C(=O)O)ccc32)cc1 (single isomer, unassigned) [Example 4] | 0.5 nM | – | – | – | – | – | – | – | – | – | – | – | – | – | – | – | – | – | – | – | IC50 ([2]; Oryctolagus cuniculus): 0.3 nM
2 | O=C(O)CCCCN(CCc1ccccc1OCc1ccc(CCc2ccccc2)cc1)C1CCCc2nc(C(=O)O)ccc21 (single isomer, unassigned) [Example 14] | 30 nM | 41.8 nM | – | – | – | – | – | – | – | – | – | – | – | – | – | – | – | – | – | – | –
3 | O=C(O)CCCCN(CCc1ccccc1OCc1ccc(CCc2ccc(F)cc2)cc1)C1CCCc2nc(C(=O)O)ccc21 (single isomer, unassigned) [Example 15] | 0.3 nM | 0.2 nM | – | – | – | – | – | – | – | – | – | – | – | – | – | – | – | – | – | – | –
4 | O=C(O)CCCCN(CCc1ccccc1OCc1ccc(CCc2ccc(F)cc2)cc1)C1CCCc2nc(C(=O)O)ccc21 (single isomer, unassigned) [Example 16] | 3 nM | 15.5 nM | – | – | – | – | – | – | – | – | – | – | – | – | – | – | – | – | – | – | –
5 | O=C(O)c1ccc(CCN(CCc2ccccc2OCc2ccc(-c3ccc(C(F)(F)F)cc3)cc2Cl)C2CCCc3nc(C(=O)O)ccc32)cc1 (single isomer, unassigned; enantiomer 2) [Example 23, 5-{[2-(4-Carboxyphenyl)ethyl][2-(2-{[3-chloro-4′-(trifluoromethyl)biphenyl-4-yl]methoxy}-phenyl)ethyl]amino}-5,6,7,8-tetrahydroquinoline-2-carboxylic acid (Enantiomer 2)] | 0.7 nM | – | no synergistic effect | 8.3 ± 1.1 x-fold | 24.5 ± 4.4 x-fold | 16.9 ± 3.3 x-fold | 54.2 ± 11.9 x-fold | 77.1 ± 9.2 x-fold | 105.4 ± 18.0 x-fold | 108.7 ± 16.3 x-fold | 155.2 ± 20.7 x-fold | 216.1 ± 28.9 x-fold | 135.7 ± 20.0 x-fold | 180.4 ± 22.9 x-fold | 227.0 ± 31.7 x-fold | 180.5 ± 21.2 x-fold | 241.0 ± 34.4 x-fold | 261.7 ± 32.1 x-fold | 52.5 ± 3.8 x-fold | 184.3 ± 15.4 x-fold | Stimulation (x-fold), haem-free sGC, basal ([4]; test compound 1.0 μM): 284.7 ± 18.8 x-fold; Stimulation (x-fold), haem-free sGC, basal ([4]; test compound 10 μM): 310.4 ± 22.6 x-fold; Stimulation (x-fold), haem-free sGC, basal ([4]; test compound 100 μM): 342.0 ± 27.6 x-fold
6 | O=C(O)c1ccc(CCN(CCc2cc(F)ccc2OCc2ccc(-c3nc4cc(Cl)ccc4o3)cc2)C2CCCc3nc(C(=O)O)ccc32)cc1 (single isomer, unassigned; enantiomer 2) [Example 39, 5-{[2-(4-Carboxyphenyl)ethyl][2-(2-{[4-(5-chloro-1,3-benzoxazol-2-yl)benzyl]oxy}-5-fluorophenyl)ethyl]amino}-5,6,7,8-tetrahydroquinoline-2-carboxylic acid (Enantiomer 2)] | 1 nM | – | no synergistic effect | 17.4 ± 2.4 x-fold | 46.5 ± 2.8 x-fold | 42.0 ± 4.9 x-fold | 73.0 ± 7.7 x-fold | 115.5 ± 11.9 x-fold | 145.6 ± 14.7 x-fold | 96.6 ± 8.5 x-fold | 145.2 ± 15.9 x-fold | 182.5 ± 17.6 x-fold | 108.6 ± 9.0 x-fold | 159.4 ± 17.9 x-fold | 188.7 ± 16.5 x-fold | 143.6 ± 13.4 x-fold | 192.1 ± 24.6 x-fold | 208.5 ± 19.0 x-fold | 39.0 ± 5.8 x-fold | 176.9 ± 29.9 x-fold | Stimulation (x-fold), haem-free sGC, basal ([4]; test compound 1.0 μM): 284.9 ± 54.5 x-fold; Stimulation (x-fold), haem-free sGC, basal ([4]; test compound 10 μM): 311.5 ± 55.9 x-fold; Stimulation (x-fold), haem-free sGC, basal ([4]; test compound 100 μM): 309.4 ± 54.8 x-fold
